According to patent US11254717B2, “Antimicrobial peptide Sparamosin from Scylla paramamosain and application thereof” (priority 2018, dated 2022):
≈ marks a conversion by molar mass, not a printed value. Ends that are not written are not given here. Peptide text beside a SMILES is read from it.

Experiments:
[1] = test system: normal human liver cell line (L02 cell line); experiment: Cytotoxicity, MTS-PMS assay; format: cell-based; details: normal cultured human hepatocytes
Procedure: (§1) The cytotoxicity effect of synthetic Sparamosin26-54 was evaluated using normal mouse liver cell line (AML12 cell line) and normal human liver cell line (L02 cell line).
(§2) (1) AML12 or L02 cells were harvested, and the cell concentration was adjusted to 10^5 cells/mL.
(§3) (2) 100 μL of AML12 or L02 cells were seeded in 96-wells and incubated at 37° C.
(§4) (3) Cells were treated with different concentrations of Sparamosin26-54 (0, 0.1, 1, 10, 100 μg/mL) for 24 h at 37° C.
(§5) (4) Cells were treated with 20 μL of MTS-PMS reagent for another 2 hours, and then the absorbance value of each well was measured at 492 nm (see FIG. 4).

[2] = test system: normal mouse liver cell line (AML12 cell line); experiment: Cytotoxicity, MTS-PMS assay; format: cell-based; details: normal cultured mouse hepatocytes
Procedure: as §1, §2, §3, §4, §5

[3] = test system: Corynebacterium glutamicum
[4] = test system: various Gram-positive bacteria and Gram-negative bacteria

Compound	MBC: minimum bactericidal concentration (Bacillus cereus) [µM]	MIC: minimum inhibitory concentration (Bacillus cereus) [µM]	MBC: minimum bactericidal concentration (Staphylococcus aureus) [µM]	MIC: minimum inhibitory concentration (Staphylococcus aureus) [µM]	MBC: minimum bactericidal concentration (Pseudomonas fluorescens) [µM]	MIC: minimum inhibitory concentration (Pseudomonas fluorescens) [µM]	MBC: minimum bactericidal concentration (Escherichia coli) [µM]	MIC: minimum inhibitory concentration (Escherichia coli) [µM]	MBC: minimum bactericidal concentration (Cryptococcus neoformans) [µM]	MIC: minimum inhibitory concentration (Cryptococcus neoformans) [µM]	MBC: minimum bactericidal concentration (Pichia pastoris (GS115)) [µM]	MIC: minimum inhibitory concentration (Pichia pastoris (GS115)) [µM]	other results
CSCC[C@H](NC(=O)[C@H](CS)NC(=O)[C@@H](NC(=O)[C@H](Cc1ccccc1)NC(=O)[C@H](CC(N)=O)NC(=O)[C@H](CC(C)C)NC(=O)[C@H](CCCNC(=N)N)NC(=O)[C@H](CS)NC(=O)[C@H](CCCNC(=N)N)NC(=O)CNC(=O)[C@H](CC(C)C)NC(=O)[C@H](Cc1ccccc1)NC(=O)[C@H](CC(=O)O)NC(=O)[C@H](CCCNC(=N)N)NC(=O)[C@H](CCCCN)NC(=O)[C@H](Cc1ccc(O)cc1)NC(=O)[C@H](CS)NC(=O)[C@H](CCCCN)NC(=O)[C@H](CCCCN)NC(=O)[C@H](CCCNC(=N)N)NC(=O)[C@H](CS)NC(=O)[C@@H]1CCCN1C(=O)[C@H](CC(N)=O)NC(=O)[C@@H]1CCCN1C(=O)CNC(=O)[C@H](CC(C)C)NC(=O)CN)[C@@H](C)O)C(=O)N[C@@H](Cc1ccccc1)C(=O)NCC(=O)O [Sparamosin26-54] (H-GLGPNPCRKKCYKRDFLGRCRLNFTCMFG-OH; N-terminus and C-terminus assumed)	24 (≈ 81.2 µg/mL)	6 to 12	12 (≈ 40.6 µg/mL)	3 to 6	6 (≈ 20.3 µg/mL)	3 to 6	12 (≈ 40.6 µg/mL)	6 to 12	12 (≈ 40.6 µg/mL)	1.5 to 3	3 (≈ 10.1 µg/mL)	1.5 to 3	cytotoxic effect [1]: no cytotoxic effect; cytotoxic effect [2]: no cytotoxic effect; MBC: minimum bactericidal concentration [3]: 6 µM (≈ 20.3 µg/mL); MIC: minimum inhibitory concentration [3]: 1.5 to 3 µM; MBC: minimum bactericidal concentration (Pseudomonas aeruginosa): 12 µM (≈ 40.6 µg/mL); MIC: minimum inhibitory concentration (Pseudomonas aeruginosa): 6 to 12 µM; MBC: minimum bactericidal concentration (Candida albicans): >48 µM; MIC: minimum inhibitory concentration (Candida albicans): >48 µM; MBC: minimum bactericidal concentration (Aspergillus niger): 24 µM (≈ 81.2 µg/mL); MIC: minimum inhibitory concentration (Aspergillus niger): 6 to 12 µM; MBC: minimum bactericidal concentration (Aspergillus flavus): >48 µM; MIC: minimum inhibitory concentration (Aspergillus flavus): >48 µM; MBC: minimum bactericidal concentration (Fusarium oxysporum): 12 µM (≈ 40.6 µg/mL); MBC: minimum bactericidal concentration (Aspergillus ochraceus): 48 µM (≈ 162 µg/mL); MIC: minimum inhibitory concentration (Aspergillus ochraceus): 3 to 6 µM; MBC: minimum bactericidal concentration (Aspergillus fumigatus): 24 µM (≈ 81.2 µg/mL); MIC: minimum inhibitory concentration (Aspergillus fumigatus): 12 to 24 µM; MBC: minimum bactericidal concentration (Neurospora crasa): 48 µM (≈ 162 µg/mL); minimum inhibitory concentration (MIC) value [4]: 3 to 12 µM; MIC value (various molds): 6 to 24 µM
APVPDPDSEQSNISEVLKVQHSIFSGLGPNPCRKKCYKRDFLGRCRLNFTCMFG (cysteines drawn unpaired) [Sparamosin]	>48	24 to 48	48	12 to 24	24	12 to 24	24	12 to 24	>48	>48	24	6 to 12	
